{"source": "patent US9302999B2", "about": "“Substituted triazoles as herbicides” (E. I. DU PONT DE NEMOURS AND COMPANY, priority 2012, dated 2016)", "format_in_all_cases": "in vivo", "details_in_all_cases": "Preemergence, scale 0 to 100", "key": {"[1]": {"test_system": "ryegrass, Italian (Italian ryegrass, Lolium multiflorum)", "test": "Test E pre-/postemergence: ryegrass, Italian", "description": "(§1) Seeds of plant species selected from corn (Zea mays), soybean (Glycine max), velvetleaf (Abutilon theophrasti), lambsquarters (Chenopodium album), poinsettia, wild (wild poinsettia, Euphorbia heterophylla), pigweed, palmer (palmer pigweed, Amaranthus palmeri), waterhemp (common waterhemp, Amaranthus rudis), smartweed (ladysthumb smartweed, Polygonum persicaria), surinam grass (Brachiaria decumbens), crabgrass, large (large crabgrass, Digitaria sanguinalis), crabgrass, Brazil (Brazilian crabgrass, Digitaria horizontalis), panicum, fall (fall panicum, Panicum dichotomiflorum), foxtail, giant (giant foxtail, Setaria faberii), foxtail, green (green foxtail, Setaria viridis), goosegrass (Eleusine indica), johnsongrass (Sorghum halepense), ragweed (common ragweed, Ambrosia elation), barnyardgrass (Echinochloa crus-galli), sandbur (southern sandbur, Cenchrus echinatus), arrowleaf sida (Sida rhombifolia), ryegrass, Italian (Italian ryegrass, Lolium multiflorum), dayflower, (VA) (Virginia dayflower, Commelina virginica), field bindweed (Convolvulus arvensis), cocklebur (common cocklebur, Xanthium strumarium), morningglory (Ipomoea coccinea), nightshade (eastern black nightshade, Solanum ptycanthum), kochia (Kochia scoparia), nutsedge, yellow (yellow nutsedge, Cyperus esculentus) and beggarticks (hairy beggarticks, Bidens pilosa) were planted into a silt loam soil and treated preemergence with test chemicals formulated in a non-phytotoxic solvent mixture which included a surfactant. At the same time, plants selected from these crop and weed species were planted in pots containing a growing medium comprising spaghnum peat moss, vermiculite, wetting agent and starter nutrients and treated with postemergence applications of some of the test chemicals formulated in the same manner. Plants ranged in height from 2 to 18 cm for postemergence treatments (1- to 4-leaf stage).\n(§2) Treated plants and controls were maintained in a greenhouse for 14 to 21 days, after which time all species were compared to controls and visually evaluated. Plant response ratings, summarized in Table E, are based on a scale of 0 to 100 where 0 is no effect and 100 is complete control. A dash (-) response means no test result."}, "[2]": {"test_system": "johnsongrass (Sorghum halepense)", "test": "Test E pre-/postemergence: johnsongrass", "outline": "(§3)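 Preemergence: seeds sown in silt loam soil and sprayed with compound in non-phytotoxic solvent containing surfactant. Postemergence: plants grown in peat/vermiculite medium, treated at 2–18 cm (1- to 4-leaf stage). Greenhouse 14–21 days; visual rating vs untreated controls, 0 (no effect) to 100 (complete control).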"}, "[3]": {"test_system": "surinam grass (Brachiaria decumbens)", "test": "Test E pre-/postemergence: surinam grass", "description": "as §1, §2"}, "[4]": {"test_system": "arrowleaf sida (Sida rhombifolia)", "test": "Test E pre-/postemergence: arrowleaf sida", "outline": "as §3"}, "[5]": {"test_system": "pigweed, palmer (palmer pigweed, Amaranthus palmeri)", "test": "Test E pre-/postemergence: pigweed, palmer", "description": "as §1, §2"}, "[6]": {"test_system": "barnyardgrass (Echinochloa crus-galli)", "test": "Test E pre-/postemergence: barnyardgrass", "outline": "as §3"}, "[7]": {"test_system": "panicum, fall (fall panicum, Panicum dichotomiflorum)", "test": "Test E pre-/postemergence: panicum, fall", "description": "as §1, §2"}, "[8]": {"test_system": "beggarticks (hairy beggarticks, Bidens pilosa)", "test": "Test E pre-/postemergence: beggarticks", "outline": "as §3"}, "[9]": {"test_system": "crabgrass, Brazil (Brazilian crabgrass, Digitaria horizontalis)", "test": "Test E pre-/postemergence: crabgrass, Brazil", "description": "as §1, §2"}}}
{"smiles": "COc1nn(-c2ccc(C(F)(F)F)cc2)nc1Cc1ccnc(C(F)(F)F)c1", "note": "[Compound 15, 4-[[5-methoxy-2-[4-(trifluoromethyl)phenyl]-2H-1,2,3-triazol-4-yl]methyl]-2-(trifluoromethyl)pyridine]", "values": [{"measurement": "Plant response rating: Ryegrass, Italian", "setting": "[1]; 16 g ai/ha", "result": 20}, {"measurement": "Plant response rating: Ryegrass, Italian", "setting": "[1]; 31 g ai/ha", "result": 75}, {"measurement": "Plant response rating: Ryegrass, Italian", "setting": "[1]; 62 g ai/ha", "result": 80}, {"measurement": "Plant response rating: Ryegrass, Italian", "setting": "[1]; 125 g ai/ha", "result": 100}, {"measurement": "Plant response rating: Ryegrass, Italian", "setting": "[1]; 250 g ai/ha", "result": 100}, {"measurement": "Plant response rating: Johnsongrass", "setting": "[2]; 16 g ai/ha", "result": 10}, {"measurement": "Plant response rating: Johnsongrass", "setting": "[2]; 31 g ai/ha", "result": 65}, {"measurement": "Plant response rating: Johnsongrass", "setting": "[2]; 62 g ai/ha", "result": 65}, {"measurement": "Plant response rating: Johnsongrass", "setting": "[2]; 125 g ai/ha", "result": 98}, {"measurement": "Plant response rating: Johnsongrass", "setting": "[2]; 250 g ai/ha", "result": 100}, {"measurement": "Plant response rating: Surinam Grass", "setting": "[3]; 16 g ai/ha", "result": 5}, {"measurement": "Plant response rating: Surinam Grass", "setting": "[3]; 31 g ai/ha", "result": 50}, {"measurement": "Plant response rating: Surinam Grass", "setting": "[3]; 62 g ai/ha", "result": 75}, {"measurement": "Plant response rating: Surinam Grass", "setting": "[3]; 125 g ai/ha", "result": 98}, {"measurement": "Plant response rating: Surinam Grass", "setting": "[3]; 250 g ai/ha", "result": 100}, {"measurement": "Plant response rating: Arrowleaf Sida", "setting": "[4]; 31 g ai/ha", "result": 30}, {"measurement": "Plant response rating: Arrowleaf Sida", "setting": "[4]; 62 g ai/ha", "result": 40}, {"measurement": "Plant response rating: Arrowleaf Sida", "setting": "[4]; 125 g ai/ha", "result": 50}, {"measurement": "Plant response rating: Arrowleaf Sida", "setting": "[4]; 250 g ai/ha", "result": 60}, {"measurement": "Plant response rating: Pigweed, Palmer", "setting": "[5]; 16 g ai/ha", "result": 100}, {"measurement": "Plant response rating: Pigweed, Palmer", "setting": "[5]; 31 g ai/ha", "result": 100}, {"measurement": "Plant response rating: Pigweed, Palmer", "setting": "[5]; 62 g ai/ha", "result": 100}, {"measurement": "Plant response rating: Pigweed, Palmer", "setting": "[5]; 125 g ai/ha", "result": 100}, {"measurement": "Plant response rating: Pigweed, Palmer", "setting": "[5]; 250 g ai/ha", "result": 100}, {"measurement": "Plant response rating: Barnyardgrass", "setting": "[6]; 16 g ai/ha", "result": 10}, {"measurement": "Plant response rating: Barnyardgrass", "setting": "[6]; 31 g ai/ha", "result": 50}, {"measurement": "Plant response rating: Barnyardgrass", "setting": "[6]; 62 g ai/ha", "result": 85}, {"measurement": "Plant response rating: Barnyardgrass", "setting": "[6]; 125 g ai/ha", "result": 98}, {"measurement": "Plant response rating: Barnyardgrass", "setting": "[6]; 250 g ai/ha", "result": 100}, {"measurement": "Plant response rating: Panicum, Fall", "setting": "[7]; 16 g ai/ha", "result": 98}, {"measurement": "Plant response rating: Panicum, Fall", "setting": "[7]; 31 g ai/ha", "result": 98}, {"measurement": "Plant response rating: Panicum, Fall", "setting": "[7]; 62 g ai/ha", "result": 100}, {"measurement": "Plant response rating: Panicum, Fall", "setting": "[7]; 125 g ai/ha", "result": 100}, {"measurement": "Plant response rating: Panicum, Fall", "setting": "[7]; 250 g ai/ha", "result": 100}, {"measurement": "Plant response rating: Beggarticks", "setting": "[8]; 16 g ai/ha", "result": 5}, {"measurement": "Plant response rating: Beggarticks", "setting": "[8]; 31 g ai/ha", "result": 5}, {"measurement": "Plant response rating: Beggarticks", "setting": "[8]; 62 g ai/ha", "result": 50}, {"measurement": "Plant response rating: Beggarticks", "setting": "[8]; 125 g ai/ha", "result": 80}, {"measurement": "Plant response rating: Beggarticks", "setting": "[8]; 250 g ai/ha", "result": 100}, {"measurement": "Plant response rating: Crabgrass, Brazil", "setting": "[9]; 16 g ai/ha", "result": 60}, {"measurement": "Plant response rating: Crabgrass, Brazil", "setting": "[9]; 31 g ai/ha", "result": 98}, {"measurement": "Plant response rating: Crabgrass, Brazil", "setting": "[9]; 62 g ai/ha", "result": 100}, {"measurement": "Plant response rating: Crabgrass, Brazil", "setting": "[9]; 125 g ai/ha", "result": 100}, {"measurement": "Plant response rating: Crabgrass, Brazil", "setting": "[9]; 250 g ai/ha", "result": 100}]}
